Laboratory results as given in patent US20060046972A1, “Cytotoxic nucleoside analog compound 003 for treating cancer” (Parker Hughes Institute, priority 2004, published 2006).

Assays:
[1] = Stability in simulated intestinal fluid; type: in vitro ADME
Description: Plasma samples, simulated gastric fluid and intestinal fluids (United State Pharmacopeia XXII methods) were separately spiked with COMPOUND 003 to yield final concentrations of 500 μM. Spiked samples were incubated at 37° C. At a predetermined time (5, 10, 15, 30 60 and 120 minutes), an aliquot (200 μl) of the spiked plasma sample was extracted as described above.

NALM6 cells = assay: Gene profiling, Atlas Human cDNA Expression arrays; type: cell-based
Description: Gene Profiling using the Atlas Human cDNA Expression arrays from Molecular Dynamics was preformed according to the manufacturer's specification, as described below.
Total RNA was prepared from NALM6 cells treated with Compound 003 (5, 50TM, vehicle) using Tripure isolation reagent (Boehringer Mannheim); the reagent is a monophasic solution of phenol and guanidine thiocyanate, followed by Dnase treatment (RQ1 Rnase-Free Dnase, Promega). Total RNA was quantified using standard spectrophotometric methods.
For probe preparation and hybridization, approximately 5 micrograms of total RNA was converted into radioactively labeled cDNA using […] (Amersham) by reverse transcriptase (Clontech). Chroma Spin columns (Clontech) were used to purify labeled cDNA. Atlas cDNA probe was denatured with 1M NaOH/10 mM EDTA and neutralized with 1M NaH2PO4 and C0t-1 DNA at 68° C. Prehybridization solution was discarded and arrays were hybridized overnight. Arrrays were washed 4 times by using 2×SSC/1% SDS and 2 times by using 0.1×SSC/0.5% SDS. Membranes were sealed and exposed to a phosphoscreen (Molecular Dynamics). The expression levels were quantified using 8 bit gray levels using image analysis software (Imagene 4.2, Biodiscovery; Inc).
For the Atlas Human cDNA Expression array, 588 genes were subdivided into these six functional groups: (A) Oncogenes, Tumor suppressors Cell Cycle regulators, (B) Ion channels and transport, Modulators, stress response, (C) Apoptosis, DNA synthesis, repair and recombination, (D) Transcription factors, DNA binding proteins, (E) Receptors, Cell surface antigens, Cell adhesion & (F) Growth factors, cytokines, chemokines, Interleukins, Hormones. The letters correspond to individual quadrants on the array and may be noted as the first letter in each abbreviation in Table 4.
Spots on the macro arrays (5, 50 Tm and control) were analyzed using the spot finder technique in the Imagene software. The integrity and fragmentation: due to saturated pixels, of the spots was assessed and appropriate background measurements were chosen to detect signals. […] All drug treated samples (5, 50TM) were compared to no drug controls using a linear regression method for log2 transformed density readings (Genesight 3.1, Biodiscovery). A piecewise linear regression method (3 bins, minimum of 20 elements per bin) was used normalize density readings across the three arrays to minimize the effect of low expression and saturated signals on the regression. All housekeeping genes were monitored for detection of false positive signals.

MOLT-3 T-lymphoma cells = assay: Confocal laser scanning microscopy of mitotic spindle, MOLT-3; type: cell-based, human; conditions: 100 μM
Description: (§1) Immunofluorenscence was used to examine the spindle features of human cancer cell lines treated with Compound 003 or 0.5% DMSO. Initially, cells at log phase were seeded onto sterile 22 mm coverslips in six -well culture plates. 24 hours later, the cells were treated with compound 003 for 2 hours at 37° C., 5% C02, fixed in methanol (−20° C. 15 min) followed by a 15 minute incubation with PBS +0.1.% Tx-100. The coverslips were incubated with antibodies raised against α-tubulin, γ-tubulin (Sigma Chemical Co., St Louis, Mo.) (40 min 37° C.), washed in PBS-Tx-100, and incubated with an appropriate secondary antibody conjugated to FITC (Jackson ImmunoResearch, Westgrove, Pa.). Cellular DNA was labeled with 5 μM TOTO3 (Molecular Probes, Eugene, Oreg.) for 20 minutes. Coverslips were immediately inverted onto slides in Vectashield (Vector Labs, Burlingame, Calif.) to prevent photobleaching, sealed with nail varnish and stored at −20° C. The slides were examined using a Bio-Rad MRC-1024 Laser Scanning Confocal Microscope equipped with a Kr/Ar laser (BioRad, Hercules, Calif.) mounted on a Nikon Eclipse E800 upright microscope with high numerical aperture objectives (Nikon, Melville, N.Y.). Digital data were processed using Lasersharp (BioRad) and Adobe Photoshop software (Adobe Systems, Mountain View, Calif.). […]

[2] = tested on: DU145 prostate cancer cells; assay: Confocal laser scanning microscopy of mitotic spindle, DU145; type: cell-based, human; conditions: 100 μM
Description: as §1

[3] = tested on: human pre-B acute lymphoblastic leukemia (NALM-6); assay: DNA flow cytometry of cell cycle arrest, NALM-6; type: cell-based; conditions: 100 μM, 48 hour
Description: Exponentially growing tumor cells were cultured at 1×10^6 cells/ml in clonogenic medium (RPMI 1640 medium +1% penicillin/streptomycin +10% heat-inactivated fetal bovine serum, 2 mML-glutamine, and 10 mM Hepes buffer) in the presence or absence of 100 μM compound 003 for 48 hour at 37° C., 5% CO2. At 48 h, cells were washed two times in fresh clonogenic medium, trypsinized, fixed in ice cold ethanol and labeled with propidium iodide to quantify their DNA content, as described previously (See, for example, Navara, et al., 2001, Anticancer Drugs. 12:369). Quantitative DNA analysis was performed on a Becton Dickenson Calibur flow cytometer equipped with a Consort 40 computer using the COTFIT program, which includes CELLCY, a cell cycle distribution function that fits DNA content histograms and calculates-the percentages of cells in G, S, and GM phases of the cell cycle, as described, for example, in Uckun et al., 1996, J Biol Chem. 271, 6389.

U373 glioblastoma cells = assay: Confocal laser scanning microscopy of mitotic spindle, U373; type: cell-based, human; conditions: 100 μM
Description: as §1

For `COC(=O)C(C)NP(=O)(OCC1OC(n2cc(C)c(=O)[nH]c2=O)CC1N=[N+]=[N-])Oc1ccc(OC)cc1` (stereo not shown) [Compound 003, 3′-azidothymidine 5′-[p-methoxyphenylmethoxyalaninyl phosphate]], the decomposition product ([1]; intestinal fluid) was “decomposed to form ala-AZT-MP”, the stability ([1]; simulated intestinal fluid, 500 μM, 37° C.) was “unstable” and the “decreased expression of GADD 153 gene” value (NALM6 cells) was ~3.5 fold. For the same molecule, the “downregulation of c-jun proto-oncogene” value (NALM6 cells) was ~2 fold, the “increase in the gene for myeloid cell nuclear differentiation antigen (MNDA)” value (NALM6 cells; 50 μM) was ~4 fold and the “increased expression of FAN gene” value (NALM6 cells; 50 μM) was 3 fold. For the same molecule, the mitotic spindle formation (MOLT-3 T-lymphoma cells) was “induced aberrant multipolar spindle formation”, the mitotic spindle formation [2] was “induced aberrant multipolar spindle formation” and the cell cycle arrest [3] was “G2M cell cycle arrest”. For the same molecule, the mitotic spindle formation (U373 glioblastoma cells) was “induced aberrant multipolar spindle formation”.
